# Earlier results as cited in patent US4127538A, “Novel pentacosapeptides, intermediates therefor and pharmaceutical compositions and methods employing said pentacosapeptides” (priority 1977, dated 1978).
# Columns and labels:
# [1] = test system: partially purified brain opiate receptor sites
# [2] = injected directly into the brain of the rat
substance,measurement,setting,value
H-Tyr-Gly-Gly-Phe-Met-OH [methionine enkephalin],binding to partially purified brain opiate receptor sites,[1],binds stereo-specifically
same,analgesic effect,[2],weak analgesic agent of short duration
